Read-outs that look alike come from different tables or passages of the source. Residues, ends and D or L forms follow the SMILES beside them.
How the values were obtained:
[1] = system: Pseudomonas aeruginosa (PSA, ATCC 27883); test: Synergy checkerboard assay (FIC index); format: cell-based; conditions: Pseudomonas aeruginosa (ATCC 27883), antibiotic alone; for MIC: ATCC27883, 24 h
[2] = system: Pseudomonas aeruginosa (ATCC 10145)
[3] = system: Methicillin-resistant Staphylococcus aureus MRSA (ATCC BAA-1556)
[4] = system: Acinetobacter baumannii (ATCC BAA-1605); conditions: Acinetobacter baumannii (ATCC BAA-1605)
[5] = system: Pseudomonas aeruginosa (ATCC BAA-1744); conditions: Pseudomonas aeruginosa (ATCC BAA-1744)
[6] = system: Escherichia coli (E. Coli, ATCC 25922)
[7] = system: Klebsiella pneumoniae (KPC, ATCC BAA-1705)
[8] = system: Klebsiella pneumoniae (KPC, ATCC BAA-1705); conditions: Klebsiella pneumoniae (ATCC BAA-1705), antibiotic alone; for MIC of antibiotics: Table 26
[9] = system: Klebsiella pneumoniae ATCC 13883; conditions: Klebsiella pneumonia (ATCC 13883)
[10] = system: Pseudomonas aeruginosa (PSA, ATCC 27883)
[11] = system: Escherichia coli (E. Coli, ATCC 25922); conditions: Escherichia coli (ATCC 25922), antibiotic alone
[12] = system: Escherichia coli (ATCC BAA-2452); conditions: Escherichia coli (ATCC BAA-2452)
[13] = system: Escherichia coli (E. Coli, ATCC 25922); test: microbe, parasite or virus in culture; conditions: ATCC25922, 24 h
[14] = system: Pseudomonas aeruginosa (PSA, ATCC 27883); test: microbe, parasite or virus in culture; conditions: ATCC27883, 24 h
[15] = system: Klebsiella pneumoniae (KPC, ATCC BAA-1705); test: microbe, parasite or virus in culture; conditions: ATCCBAA1705, 24 h
[16] = system: Klebsiella pneumoniae (KPC, ATCC BAA-1705); test: microbe, parasite or virus in culture; conditions: ATCCBAA1705, 24 h, read-out: MIC of antibiotic
[17] = system: Methicillin-resistant Staphylococcus aureus MRSA (ATCC BAA-1556); test: microbe, parasite or virus in culture; conditions: ATCCBAA1556|MRSA, 24 h
[18] = Table 28, IFX-031, antibiotics alone and PHY-MIX (1:1 w/w)
[19] = Table 29, [R6W4] (IFX-318), antibiotics alone and PHY-MIX (1:1 w/w)
[20] = Table 30, [R5W4K] (IFX-315), antibiotics alone and PHY-MIX (1:1 w/w)
[21] = Table 31, [R5W4] (IFX-301), antibiotics alone and PHY-MIX (1:1 w/w)
[22] = read-out: Escherichia coli (ATCC 25922) MIC, Table 28, IFX-031, antibiotics alone and PHY-MIX (1:1 w/w)
[23] = read-out: Escherichia coli (ATCC 25922) MIC, Table 29, [R6W4] (IFX-318), antibiotics alone and PHY-MIX (1:1 w/w)
[24] = read-out: Escherichia coli (ATCC 25922) MIC, Table 30, [R5W4K] (IFX-315), antibiotics alone and PHY-MIX (1:1 w/w)
[25] = read-out: Escherichia coli (ATCC 25922) MIC, Table 31, [R5W4] (IFX-301), antibiotics alone and PHY-MIX (1:1 w/w)
[26] = read-out: Pseudomonas aeruginosa (ATCC 27883) MIC, Table 28, IFX-031, antibiotics alone and PHY-MIX (1:1 w/w)
[27] = read-out: Pseudomonas aeruginosa (ATCC 27883) MIC, Table 29, [R6W4] (IFX-318), antibiotics alone and PHY-MIX (1:1 w/w)
[28] = read-out: Pseudomonas aeruginosa (ATCC 27883) MIC, Table 30, [R5W4K] (IFX-315), antibiotics alone and PHY-MIX (1:1 w/w)
[29] = read-out: Pseudomonas aeruginosa (ATCC 27883) MIC, Table 31, [R5W4] (IFX-301), antibiotics alone and PHY-MIX (1:1 w/w)
[30] = read-out: Klebsiella pneumoniae (ATCC BAA-1705) MIC, Table 28, IFX-031, antibiotics alone and PHY-MIX (1:1 w/w)
[31] = read-out: Klebsiella pneumoniae (ATCC BAA-1705) MIC, Table 29, [R6W4] (IFX-318), antibiotics alone and PHY-MIX (1:1 w/w)
[32] = read-out: Klebsiella pneumoniae (ATCC BAA-1705) MIC, Table 30, [R5W4K] (IFX-315), antibiotics alone and PHY-MIX (1:1 w/w)
[33] = read-out: Klebsiella pneumoniae (ATCC BAA-1705) MIC, Table 31, [R5W4] (IFX-301), antibiotics alone and PHY-MIX (1:1 w/w)

Polymyxin
0.5 µg/mL: MIC (KPC; Table 35, Klebsiella pneumoniae (ATCC BAA-1705)) | MIC (KPC; Table 36, Klebsiella pneumoniae (ATCC BAA-1705)) | Polymyxin MIC ([8]; Table 27)
64 µg/mL: MRSA (ATCC BAA-1556) MIC [3, 18] | MRSA (ATCC BAA-1556) MIC [3, 19] | MRSA (ATCC BAA-1556) MIC [3, 20] | MRSA (ATCC BAA-1556) MIC [3, 21]
1 µg/mL: MIC of antibiotic ([1]; Table 25) | MIC of antibiotic ([1]; Table 26) | antibiotic MIC ([1]; Table 27) | MIC ([4]; Table 35) | MIC ([4]; Table 36) | Klebsiella pneumoniae (ATCC BAA-1705) MIC [7, 18] | Klebsiella pneumoniae (ATCC BAA-1705) MIC [7, 19] | Klebsiella pneumoniae (ATCC BAA-1705) MIC [7, 20] | Klebsiella pneumoniae (ATCC BAA-1705) MIC [7, 21] | MIC of antibiotic [8] | MIC of antibiotic ([8]; Table 25) | MIC of antibiotics [8] | MIC ([9]; Table 35) | MIC ([9]; Table 36) | Pseudomonas aeruginosa (ATCC 27883) MIC [10, 18] | Pseudomonas aeruginosa (ATCC 27883) MIC [10, 19] | Pseudomonas aeruginosa (ATCC 27883) MIC [10, 20] | Pseudomonas aeruginosa (ATCC 27883) MIC [10, 21] | MIC (PSA; Table 35, P. aeruginosa ATCC 27883) | MIC (PSA; Table 36, P. aeruginosa ATCC 27883) | MIC ([12]; Table 35) | MIC ([12]; Table 36)
2 µg/mL: MIC ([2]; Table 35, Pseudomonas aeruginosa (ATCC 10145)) | MIC ([2]; Table 36, Pseudomonas aeruginosa (ATCC 10145)) | MIC ([5]; Table 35) | MIC ([5]; Table 36) | Escherichia coli (ATCC 25922) MIC [6, 18] | Escherichia coli (ATCC 25922) MIC [6, 19] | Escherichia coli (ATCC 25922) MIC [6, 20] | Escherichia coli (ATCC 25922) MIC [6, 21] | MIC (E. coli; Table 35, E. coli ATCC 25922) | MIC (E. coli; Table 36, E. coli ATCC 25922) | MIC of antibiotic [11] | MIC of antibiotic ([11]; Table 25) | MIC of antibiotic ([11]; Table 26) | Polymyxin MIC ([11]; Table 27)

C[C@H]1COc2c(N3CCN(C)CC3)c(F)cc3c(=O)c(C(=O)O)cn1c23 [Levofloxacin]
1 µg/mL: MIC ([1]; Table 25) | MIC of antibiotic ([1]; Table 26) | MIC [14, 26] | MIC [14, 27] | MIC [14, 28] | MIC [14, 29]
64 µg/mL: MIC [13, 23] | MIC [13, 24] | MIC [13, 25] | MIC of antibiotic [8] | MIC of antibiotic [11] | MIC of antibiotic ([11]; Table 25) | MIC of antibiotic ([11]; Table 26) | MIC [15, 31] | MIC [15, 32] | MIC [15, 33] | MIC [16]
32 µg/mL: MIC [15, 30]
16 µg/mL: MIC [13, 22]

N=C(N)NCCC[C@@H]1NC(=O)[C@H](CCCNC(=N)N)NC(=O)[C@H](CCCNC(=N)N)NC(=O)[C@H](CCCNC(=N)N)NC(=O)[C@H](Cc2c[nH]c3ccccc23)NC(=O)[C@H](Cc2c[nH]c3ccccc23)NC(=O)[C@H](Cc2c[nH]c3ccccc23)NC(=O)[C@H](Cc2c[nH]c3ccccc23)NC(=O)[C@H](CCCNC(=N)N)NC(=O)[C@H](CCCNC(=N)N)NC1=O [[R6W4] IFX-301] (cyclo(RRRRRRWWWW))
16 µg/mL: MIC (PSA)
32 µg/mL: MIC ([2]; ATCC 10145) | MIC (E. coli)
64 µg/mL: MIC (KPC)

NC[C@H]1O[C@H](O[C@H]2[C@H](O)[C@@H](O[C@H]3O[C@H](CO)[C@@H](O)[C@H](N)[C@H]3O)[C@H](N)C[C@@H]2N)[C@H](O)[C@@H](O)[C@@H]1O [Kanamycin]
256 µg/mL: MIC ([1]; Table 25)
64 µg/mL: MIC of antibiotic [8] | MIC of antibiotics [8] | MIC [15, 30] | MIC [15, 31] | MIC [15, 32] | MIC [15, 33] | MIC [16]
32 µg/mL: MIC [13, 22] | MIC [13, 23] | MIC [13, 24] | MIC [13, 25] | MIC of antibiotic [11] | MIC of antibiotic ([11]; Table 25) | MIC of antibiotic ([11]; Table 26)
> 64 µg/mL: MIC ([17]; read-out: MRSA (ATCC BAA-1556) MIC, Table 28, IFX-031, antibiotics alone and PHY-MIX (1:1 w/w)) | MIC ([17]; read-out: MRSA (ATCC BAA-1556) MIC, Table 29, [R6W4] (IFX-318), antibiotics alone and PHY-MIX (1:1 w/w)) | MIC ([17]; read-out: MRSA (ATCC BAA-1556) MIC, Table 30, [R5W4K] (IFX-315), antibiotics alone and PHY-MIX (1:1 w/w)) | MIC ([17]; read-out: MRSA (ATCC BAA-1556) MIC, Table 31, [R5W4] (IFX-301), antibiotics alone and PHY-MIX (1:1 w/w)) | MIC [14, 26] | MIC [14, 27] | MIC [14, 28] | MIC [14, 29]
